The source of these data is patent US11071721B2, “Bicyclic amide compounds and methods of use thereof” (Genentech, Inc., priority 2016, dated 2021).

pKi: −log10 of the molar value.

Chain of human RIP1 kinase domain (2-375) (Q13546 2-375): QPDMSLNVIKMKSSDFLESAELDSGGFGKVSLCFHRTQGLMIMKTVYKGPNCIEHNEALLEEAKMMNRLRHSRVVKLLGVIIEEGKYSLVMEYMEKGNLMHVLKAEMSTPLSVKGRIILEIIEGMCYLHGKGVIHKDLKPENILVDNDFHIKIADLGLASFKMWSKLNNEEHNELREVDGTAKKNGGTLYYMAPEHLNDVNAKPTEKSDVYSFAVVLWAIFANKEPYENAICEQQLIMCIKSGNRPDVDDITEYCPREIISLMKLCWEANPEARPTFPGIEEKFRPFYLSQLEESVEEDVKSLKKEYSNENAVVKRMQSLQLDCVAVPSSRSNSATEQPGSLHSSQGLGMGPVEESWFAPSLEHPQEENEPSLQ

This test addresses human RIP1 kinase domain (2-375) (Homo sapiens (Human), UniProt Q13546). Description: RIP1 kinase inhibition assay (Transcreener ADP biochemical enzyme assay). The conditions noted are these: Ki app (Morrison tight-binding fit); 50 nM enzyme, 50 uM ATP, 2 hours incubation, fluorescence polarization. The protocol:
RIP1 Kinase Inhibition Assays (Biochemical Assay):
The compounds of the present invention were tested for their capacity to inhibit RIP K activity as described below.
Enzyme assay: The ability of the receptor interacting protein kinase (RIPK1) to catalyze the hydrolysis of adenosine-5′-triphosphate (ATP) is monitored using the Transcreener ADP (adenosine-5′-diphosphate) assay (BellBrook Labs). Purified human RIP1 kinase domain (2-375) (50 nM) derived from a baculovirus-infected insect cell expression system is incubated with test compounds for 2 hours in 50 mM Hepes buffer (pH 7.5) containing 30 mM MgCl2, 1 mM dithiothreitol, 50 uM ATP, 0.002% Brij-35, and 0.5% dimethyl sulfoxide (DMSO). Reactions are quenched by the addition of 1× Bell Brooks Stop buffer B (20 mM Hepes (ph7.5), 40 mM ethylenediaminetetraacetic acid and 0.02% Brij-35) containing an additional 12 mM EDTA and 55 ug/mL ADP2 antibody and 4 nM ADP-AlexaFluor® 633 tracer. The tracer bound to the antibody is displaced by the ADP generated during the RIP1K reaction, which causes a decrease in fluorescence polarization that is measured by laser excitation at 633 nm with a FP microplate reader M1000. Fractional activity was plotted against test article concentration. Using Genedata Screener software (Genedata; Basel, Switzerland), the data were fit to the tight-binding apparent inhibition constant (Ki^app) Morrison equation [Williams, J. W. and Morrison, J. F. (1979) The kinetics of reversible tight-binding inhibition. Methods Enzymol 63: 437-67]. The following equation was used to calculate fractional activity and Ki^app:
[formula] where [E]T and [I]T are the total concentrations of active enzyme and test article, respectively.
A general note: Polarisation of emitted light reports the rotation of a fluorescent probe.
The term pKi denotes −log10 of the Ki, conventionally taken in molar units. Lower therefore signals a high Ki. For the compound `O=C(c1nc2n(n1)[C@H](c1ccccc1)C[C@@H]2F)N1CC(C(F)(F)F)C1` (racemic) [Example 50, [rac-(5S,7S)-7-fluoro-5-phenyl-6,7-dihydro-5H-pyrrolo[1,2-b][1,2,4]triazol-2-yl]-[3-(trifluoromethyl)azetidin-1-yl]methanone], the pKi was 5.80. Under `O=C(c1nc2n(n1)[C@H](c1ccccc1)C[C@@H]2F)N1CC(C(F)F)C1` (racemic) [Example 51, [3-(difluoromethyl)azetidin-1-yl]-[rac-(5S, 7S)-7-fluoro-5-phenyl-6,7-dihydro-5H-pyrrolo[1,2-b][1,2,4]triazol-2-yl]methanone] stands 7.00; under `O=C(c1nc2n(n1)[C@H](c1ccccc1)C[C@@H]2F)N1CC[C@@H]1C(F)F` (racemic) [Example 53, [rac-(2R)-2-(difluoromethyl)azetidin-1-yl]-[rac-(5S,7S)-7-fluoro-5-phenyl-6,7-dihydro-5H-pyrrolo[1,2-b][1,2,4]triazol-2-yl]methanone], 8.05; under `COCCN(CC(F)(F)F)C(=O)c1nc2n(n1)[C@H](c1ccccc1)C[C@@H]2F` (racemic) [Example 55, rac-(5S,7S)-7-fluoro-N-(2-methoxyethyl)-5-phenyl-N-(2,2,2-trifluoroethyl)-6,7-dihydro-5H-pyrrolo[1,2-b][1,2,4]triazole-2-carboxamide], 5.41. Under `COCCN(CC(F)F)C(=O)c1nc2n(n1)[C@@H](c1ccccc1)C[C@H]2F` (racemic) [Example 56, rac-(5R,7R)-N-(2,2-difluoroethyl)-7-fluoro-N-(2-methoxyethyl)-5-phenyl-6,7-dihydro-5H-pyrrolo[1,2-b[[1,2,4]triazole-2-carboxamide] stands 6.28; under `O=C(c1nc2n(n1)[C@H](c1ccccc1)C[C@@H]2F)N(CC(F)(F)F)C1COC1` (racemic) [Example 57, rac-(5S,7S)-7-fluoro-N-(oxetan-3-yl)-5-phenyl-N-(2,2,2-trifluoroethyl)-6,7-dihydro-5H-pyrrolo[1,2-b][1,2,4]triazole-2-carboxamide], 6.29; under `O=C(c1nc2n(n1)[C@H](c1ccccc1)C[C@@H]2F)N(CC(F)F)C1CC1` (racemic) [Example 58, rac-(5S,7S)-N-cyclopropyl-N-(2,2-difluoroethyl)-7-fluoro-5-phenyl-6,7-dihydro-5H-pyrrolo[1,2-b][1,2,4]triazole-2-carboxamide], 6.24.

For the compound `O=C(c1nc2n(n1)[C@H](c1ccccc1)C[C@@H]2F)N(CC(F)(F)F)C1CC1` (racemic) [Example 59, rac-(5S,7S)-N-cyclopropyl-7-fluoro-5-phenyl-N-(2,2,2-trifluoroethyl)-6,7-dihydro-5H-pyrrolo[1,2-b][1,2,4|]triazole-2-carboxamide], the pKi was 5.66.

The compound `O=C(c1nc2n(n1)[C@H](c1ccccc1)C[C@@H]2F)N1CCC1C(F)F` (mixture of isomers) [Example 60, [2-(difluoromethyl)azetidin-1-yl]-[rac-(5S,7S)-7-fluoro-5-phenyl-6,7-dihydro-5H-pyrrolo[1,2-b][1,2,4]triazol-2-yl]methanone] showed a pKi of 7.77. `O=C(c1nc2n(n1)[C@H](c1ccccc1)C[C@@H]2F)N(C1CC1)C1CC1` (racemic) [Example 61, rac-(5S,7S)-N,N-dicyclopropyl-7-fluoro-5-phenyl-6,7-dihydro-5H-pyrrolo[1,2-b] [1,2,4]triazole-2-carboxamide] had a pKi of 5.49. Regarding `CC1CN(C(=O)c2nc3n(n2)[C@H](c2ccccc2)C[C@@H]3F)Cc2ccnn21` (mixture of isomers) [Example 62, (7-methyl-6,7-dihydro-4H-pyrazolo[1,5-a]pyrazin-5-yl)-[rac-(5S,7S)-7-fluoro-5-phenyl-6,7-dihydro-5H-pyrrolo[1,2-b][1,2,4]triazol-2-yl]methanone], the pKi is 6.89. Compound `Cc1cc2n(n1)CCN(C(=O)c1nc3n(n1)[C@H](c1ccccc1)C[C@@H]3F)C2` (racemic) [Example 63, (2-methyl-6,7-dihydro-4H-pyrazolo[1,5-a]pyrazin-5-yl)-[rac-(5S,7S)-7-fluoro-5-phenyl-6,7-dihydro-5H-pyrrolo[1,2-b][1,2,4]triazol-2-yl]methanone] gave a pKi of 5.64.

The compound `O=C(c1nc2n(n1)[C@@H](c1ccccc1)C[C@H]2F)N1CCC[C@H]1C(F)F` (racemic) [Example 64, [rac-(2S)-2-(difluoromethyl)pyrrolidin-1-yl]-[rac-(5R,7R)-7-fluoro-5-phenyl-6,7-dihydro-5H-pyrrolo[1,2-b][1,2,4]triazol-2-yl]methanone] gave a pKi of 8.40. `O=C(c1nc2n(n1)[C@H](c1ccccc1)C[C@@H]2F)N1CCn2ccnc2C1` (racemic) [Example 68, 6,8-dihydro-5H-imidazo[1,2-a]pyrazin-7-yl-[rac-(5S,7S)-7-fluoro-5-phenyl-6,7-dihydro-5H-pyrrolo[1,2-b][1,2,4]triazol-2-yl]methanone] had a pKi of 7.31.

Compound `C[C@@H]1C[C@H](F)CN1C(=O)c1nc2n(n1)[C@H](c1ccccc1)C[C@@H]2F` (racemic) [Example 70, [rac-(2R,4S)-4-fluoro-2-methyl-pyrrolidin-1-yl]-[rac-(5S,7S)-7-fluoro-5-phenyl-6,7-dihydro-5H-pyrrolo[1,2-b] [1,2,4]triazol-2-yl]methanone] had a pKi of 6.82. The result for `O=C(c1nc2n(n1)[C@H](c1ccccc1)C[C@@H]2F)N1CCC[C@@H]1CO` (racemic) [Example 71, [rac-(5S,7S)-7-fluoro-5-phenyl-6,7-dihydro-5H-pyrrolo[1,2-b][1,2,4]triazol-2-yl]-[rac-(2R)-2-(hydroxymethyl)pyrrolidin-1-yl]methanone] reads 6.16; that for `O=C(c1nc2n(n1)[C@H](c1ccccc1)C[C@@H]2F)N1CC(F)(F)CC1CO` (mixture of isomers) [Example 72, [4,4-difluoro-2-(hydroxymethyl)pyrrolodin-1-yl]-[rac-(5S,7S)-7-fluoro-5-phenyl-6,7-dihydro-5H-pyrrolo[1,2-b] [1,2,4]triazol-2-yl]methanone], 5.41; that for `O=C(c1nc2n(n1)[C@H](c1ccccc1)C[C@@H]2F)N1CC(F)(F)C[C@H]1CF` (racemic) [Example 73, [rac-(2S)-4,4-difluoro-2-(fluoromethyl)pyrrolidin-1-yl]-[rac-(5S,7S)-7-fluoro-5-phenyl-6,7-dihydro-5H-pyrrolo[1,2-b] [1,2,4]triazol-2-yl]methanone], 7.09. `O=C(c1nc2n(n1)[C@H](c1ccccc1)C[C@@H]2F)N1CCc2cnccc2C1` (racemic) [Example 75, 3.4-dihydro-1H-2,6-naphthyridin-2-yl-[rac-(5S,7S)-7-fluoro-5-phenyl-6,7-dihydro-5H-pyrrolo[1,2-b][1,2,4]triazol-2-yl]methanone] gave a pKi of 6.54. In turn, `O=C(c1nc2n(n1)[C@H](c1ccccc1)C[C@@H]2F)N1CCC(Oc2ccccc2)C1` (mixture of isomers) [Example 77, (3-phenoxypyrrolidin-1-yl)-[rac-(5S,7S)-7-fluoro-5-phenyl-6,7-dihydro-5H-pyrrolo[1,2-b][1,2,4]triazol-2-yl]methanone] had a pKi of 7.21. Under `O=C(c1nc2n(n1)[C@H](c1ccccc1)C[C@@H]2F)N1CCCC1C(F)F` (mixture of isomers) [Example 78, [2-(difluoromethyl)pyrrolidin-1-yl]-[rac-(5S, 7S)-7-fluoro-5-phenyl-6,7-dihydro-5H-pyrrolo[1,2-b][1,2,4]triazol-2-yl]methanone] stands 7.22. The result for `O=C(c1nc2n(n1)[C@H](c1ccccc1)C[C@@H]2F)N1CCCC(F)(F)C1` (racemic) [Example 79, (3,3-difluoro-1-piperidyl)-[rac-(5S,7S)-7-fluoro-5-phenyl-6,7-dihydro-5H-pyrrolo[1,2-b][1,2,4]triazol-2-yl] methanone] reads 6.10; that for `O=C(c1nc2n(n1)[C@H](c1ccccc1)C[C@@H]2F)N1CCCn2nccc21` (racemic) [Example 80, 6,7-dihydro-5H-pyrazolo[1,5-a]pyrimidin-4-yl-[rac-(5S,7S)-7-fluoro-5-phenyl-6,7-dihydro-5H-pyrrolo[1,2-b][1,2,4]triazol-2-yl]methanone], 7.00. On to `O=C(c1nc2n(n1)[C@H](c1ccccc1)C[C@@H]2F)N1CCC(C(F)(F)F)n2nccc21` (mixture of isomers) [Example 81, [rac-(5S,7S)-7-fluoro-5-phenyl-6,7-dihydro-5H-pyrrolo[1,2-b][1,2,4]triazol-2-yl]-[7-(trifluoromethyl)-6,7-dihydro-5H-pyrazolo [1,5-a]pyrimidin-4-yl]methanone], for which the pKi was 6.60.

`O=C(c1nc2n(n1)[C@H](c1ccccc1)C[C@@H]2F)N1CCC[C@H]1C(F)(F)F` (racemic) [Example 82, [rac-(5S,7S)-7-fluoro-5-phenyl-6,7-dihydro-5H-pyrrolo[1,2-b][1,2,4]triazol-2-yl]-[rac-(2S)-2-(trifluoromethyl)pyrrolidin-1-yl]methanone] showed a negative-log Ki (pKi) of 6.35.
